Laboratory results from patent publication US8592594B2, “Tetrahydro-quinoline derivatives” (Hoffmann-La Roche Inc., priority 2010, dated 2013).
pEC50: −log10 of the molar value.

Tested on: recombinant AMPK proteins (α1β1γ1, α2β1γ1, α1(1-335), α1(1-394) or α2(1-394))
Assay: Scintillation Proximity Assay (SPA), AMPK activation
Assay type: biochemical, human
Details: effective concentration of activator for 50% of maximal enzyme activity; 50 nM AMPK, 2 μM ATP, 2 μM biotin-SAMS, 30° C., 2 hours
Protocol: Recombinant human AMPK α1β1γ1, α2β1γ1 or AMPK α subunit truncations α1(1-335), α1(1-394) and α2(1-394) were constructed, expressed and purified as described previously (Pang, T., Zhang, Z. S., Gu, M., Qiu, B. Y., Yu, L. F., Cao, P. R., Shao, W., Su, M. B., Li, J. Y., Nan, F. J., and Li, J. (2008). Rat liver AMPK heterotrimer enzyme was obtained from Upstate (Billerica, Mass., U.S.A.).
Scintillation Proximity Assay
Before the Scintillation Proximity Assay (SPA) assay, 200 nM recombinant AMPK proteins (α1β1γ1, α2β1γ1, α1(1-335), α1(1-394) or α2(1-394)) were fully phosphorylated as described previously (Pang et al., 2008). SPA reactions were performed in 96-well plates at a final volume of 50 μL containing 20 mM Tris-HCl pH 7.5, 5 mM MgCl2, 1 mM DTT, 2 μM biotin-SAMS, 2 μM ATP, 0.2 μCi/well [γ-^33P]ATP, and various amount of activator. Reactions were initiated by the addition of 50 nM recombinant AMPK proteins to the reaction solutions and incubated at 30° C. for 2 hours. After that, reactions were terminated by the addition of 40 μL stop solution containing 80 μg streptavidin-coated SPA beads per well, 50 mM ED TA, 0.1% Triton X-100 in PBS, pH 7.5 and incubated for 1 hour. Finally, a 160 μL suspension solution containing 2.4 M CsCl, 50 mM EDTA, and 0.1% Triton X-100 in PBS (pH 7.5) was added to the reaction solution to suspend SPA beads completely. SPA signals were determined with a Wallac MicroBeta plate counter (PerkinElmer) 30 min later for calculation of the amount of product formed. The amount of products formed in 2 hour was plotted against activator concentrations to determine the effective concentration of the activator (EC50) required for 50% of maximal enzyme activity.

With `O=C(NC1CCC1)c1ccc2c(c1)C1(CCCC1)CC(c1ccc(F)c(Cl)c1)N2` (stereo not shown) [Example 69, 2-(3-Chloro-4-fluoro-phenyl)-spiro(cyclopentane-1,4′-1′,2′,3′,4′-tetrahydroquinoline)-6-carboxylic acid cyclobutylamide] as the compound, how does the pEC50 read?
Its pEC50 is 5.38.

How did the pEC50 turn out when `CC(C)NC(=O)c1ccc2c(c1)C1(CC1)CC(c1cc(Cl)ccc1Cl)N2` (stereo not shown) [Example 41, 2-(2,5-Dichloro-phenyl)-spiro(cyclopropane-1,4′-1′,2′,3′,4′-tetrahydroquinoline)-6-carboxylic acid isopropylamide] was run?
The pEC50 was 5.29.

How did the pEC50 turn out when `CN(C)C(=O)c1ccc2c(c1)C(C)(C)CC(C(C)(C)c1ccccc1)N2` (stereo not shown) [Example 50, 4,4-Dimethyl-2-(1-methyl-1-phenyl-ethyl)-1,2,3,4-tetrahydro-quinoline-6-carboxylic acid dimethylamide] was run?
The pEC50 was 5.54.

`C=CC1(C)CC(c2ccc(F)c(Cl)c2)Nc2ccc(C(=O)O)cc21` (stereo not shown) [Example 19, 2-(3-Chloro-4-fluoro-phenyl)-4-methyl-4-vinyl-1,2,3,4-tetrahydro-quinoline-6-carboxylic acid] was tested. Which pEC50 did it give?
Its pEC50 is 5.67.

With `O=C(NC1CCC1)c1ccc2c(c1)C1(CC1)CC(c1cc(Br)ccc1F)N2` (stereo not shown) [Example 36, 2-(5-Bromo-2-fluoro-phenyl)-spiro(cyclopropane-1,4′-1′,2′,3′,4′-tetrahydroquinoline)-6-carboxylic acid cyclobutylamide] as the compound, how does the pEC50 read?
Its pEC50 is 5.25.

How did the pEC50 turn out when `CN1CCC(NC(=O)c2ccc3c(c2)C2(CCCC2)CC(c2cc(F)ccc2Br)N3)CC1` (stereo not shown) [Example 53, 2-(2-Bromo-5-fluoro-phenyl)-spiro(cyclopentane-1,4′-1′,2′,3′,4′-tetrahydroquinoline)-6-carboxylic acid (1-methyl-piperidin-4-yl)-amide] was run?
Its pEC50 is 5.86.

How did the pEC50 turn out when `O=C(O)c1ccc2c(c1)C1(CCCC1)CC(c1cc(F)ccc1Br)N2` (stereo not shown) [Example 10, 2-(2-Bromo-5-fluoro-phenyl)-spiro(cyclopentane-1,4′-1′,2′,3′,4′-tetrahydroquinoline)-6-carboxylic acid] was run?
The pEC50 was 5.46.

How did the pEC50 turn out when `CCC1(C)CC(c2ccc(F)c(Cl)c2)Nc2ccc(C(=O)NC3CCC3)nc21` (stereo not shown) [Example 70, 6-(3-Chloro-4-fluoro-phenyl)-8-ethyl-8-methyl-5,6,7,8-tetrahydro-[1,5]naphthyridine-2-carboxylic acid cyclobutylamide] was run?
Its pEC50 is 5.04.

With `CC1(C)CC(c2cc(Cl)ccc2F)Nc2ccc(CC(=O)O)cc21` (stereo not shown) [Example 18, [2-(5-Chloro-2-fluoro-phenyl)-4,4-dimethyl-1,2,3,4-tetrahydro-quinolin-6-yl]-acetic acid] as the compound, how does the pEC50 read?
The pEC50 was 5.34.

`CC1(C)CC(c2cccc(N3CCOCC3)c2)Nc2ccc(C(=O)O)cc21` (stereo not shown) [Example 22, 4,4-Dimethyl-2-(3-morpholin-4-yl-phenyl)-1,2,3,4-tetrahydro-quinoline-6-carboxylic acid] was tested. Which pEC50 did it give?
The pEC50 was 5.27.

How did the pEC50 turn out when `O=C(c1ccc2c(c1)C1(CC1)CC(c1cc(F)ccc1Br)N2)N1CCOCC1` (stereo not shown) [Example 32, [2-(2-Bromo-5-fluoro-phenyl)-spiro(cyclopropane-1,4′-1′,2′,3′,4′-tetrahydroquinolin)-6-yl]-morpholin-4-yl-methanone] was run?
The pEC50 was 5.91.

`CC(C)NC(=O)c1ccc2c(c1)C1(CC1)CC(c1cc(F)ccc1Br)N2` (stereo not shown) [Example 33, 2-(2-Bromo-5-fluoro-phenyl)-spiro(cyclopropane-1,4′-1′,2′,3′,4′-tetrahydroquinoline)-6-carboxylic acid isopropylamide] was tested. Which pEC50 did it give?
The pEC50 was 4.87.

With `CCC1(C)CC(c2ccc(F)c(Cl)c2)Nc2ccc(C(=O)O)nc21` (stereo not shown) [Example 26, 6-(3-Chloro-4-fluoro-phenyl)-8-ethyl-8-methyl-5,6,7,8-tetrahydro-[1,5]naphthyridine-2-carboxylic acid] as the compound, how does the pEC50 read?
The pEC50 was 5.68.

`O=C(NC1COC1)c1ccc2c(c1)C1(CCCC1)CC(c1cc(F)ccc1Br)N2` (stereo not shown) [Example 59, 2-(2-Bromo-5-fluoro-phenyl)-spiro(cyclopentane-1,4′-1′,2′,3′,4′-tetrahydroquinoline)-6-carboxylic acid oxetan-3-ylamide] was tested. Which pEC50 did it give?
Its pEC50 is 4.95.

How did the pEC50 turn out when `CN1CCN(C(=O)c2ccc3c(c2)C2(CCCC2)CC(c2cc(F)ccc2Br)N3)CC1` (stereo not shown) [Example 58, [2-(2-Bromo-5-fluoro-phenyl)-spiro(cyclopentane-1,4′-1′,2′,3′,4′-tetrahydroquinolin)-6-yl]-(4-methyl-piperazin-1-yl)-methanone] was run?
The pEC50 was 5.43.

How did the pEC50 turn out when `CC1(C)CC(c2cc(Cl)ccc2F)Nc2ccc(C(=O)NC3CCC3)cc21` (stereo not shown) [Example 67, 2-(5-Chloro-2-fluoro-phenyl)-4,4-dimethyl-1,2,3,4-tetrahydro-quinoline-6-carboxylic acid cyclobutylamide] was run?
Its pEC50 is 4.82.

`CS(=O)(=O)N1CCN(C(=O)c2ccc3c(c2)C2(CC2)CC(c2cc(Cl)ccc2Cl)N3)CC1` (stereo not shown) [Example 42, [2-(2,5-Dichloro-phenyl)-spiro(cyclopropane-1,4′-1′,2′,3′,4′-tetrahydroquinolin)-6-yl]-(4-methanesulfonyl-piperazin-1-yl)-methanone] was tested. Which pEC50 did it give?
The pEC50 was 5.42.

How did the pEC50 turn out when `CC(C)N1CCN(c2cccc(C3CC(C)(C)c4cc(C(=O)O)ccc4N3)c2)CC1` (stereo not shown) [Example 23, 2-[3-(4-Isopropyl-piperazin-1-yl)-phenyl]-4,4-dimethyl-1,2,3,4-tetrahydro-quinoline-6-carboxylic acid] was run?
The pEC50 was 5.15.

`O=C(O)c1ccc2c(c1)C1(CC1)CC(c1cc(F)ccc1Br)N2` (stereo not shown) [Example 7, 2-(2-Bromo-5-fluoro-phenyl)-spiro(cyclopropane-1,4′-1′,2′,3′,4′-tetrahydroquinoline)-6-carboxylic acid] was tested. Which pEC50 did it give?
The pEC50 was 5.64.

How did the pEC50 turn out when `Cc1ccc(F)cc1C1CC2(CC2)c2cc(C(=O)N3CCOCC3)ccc2N1` (stereo not shown) [Example 30, [2-(5-Fluoro-2-methyl-phenyl)-spiro(cyclopropane-1,4′-1′,2′,3′,4′-tetrahydroquinolin)-6-yl]-morpholin-4-yl-methanone] was run?
The pEC50 was 5.61.

With `O=C(NC1CC1)c1ccc2c(c1)C1(CCCC1)CC(c1cc(F)ccc1Br)N2` (stereo not shown) [Example 52, 2-(2-Bromo-5-fluoro-phenyl)-spiro(cyclopentane-1,4′-1′,2′,3′,4′-tetrahydroquinoline)-6-carboxylic acid cyclopropylamide] as the compound, how does the pEC50 read?
The pEC50 was 5.32.

`CC1(C)CC(c2cc(Cl)ccc2Cl)Nc2ccc(C(=O)O)cc21` (stereo not shown) [Example 15, 2-(2,5-Dichloro-phenyl)-4,4-dimethyl-1,2,3,4-tetrahydro-quinoline-6-carboxylic acid] was tested. Which pEC50 did it give?
The pEC50 was 5.12.

With `O=C(NCCO)c1ccc2c(c1)C1(CCCC1)CC(c1cc(F)ccc1Br)N2` (stereo not shown) [Example 56, 2-(2-Bromo-5-fluoro-phenyl)-spiro(cyclopentane-1,4′-1′,2′,3′,4′-tetrahydroquinoline)-6-carboxylic acid (2-hydroxy-ethyl)-amide] as the compound, how does the pEC50 read?
The pEC50 was 5.47.

`CC1(C)CC(c2cc(Cl)ccc2F)Nc2cc(Cl)c(C(=O)O)cc21` (stereo not shown) [Example 17, 7-Chloro-2-(5-chloro-2-fluoro-phenyl)-4,4-dimethyl-1,2,3,4-tetrahydro-quinoline-6-carboxylic acid] was tested. Which pEC50 did it give?
The pEC50 was 5.34.

How did the pEC50 turn out when `O=C(c1ccc2c(c1)C1(CC1)CC(c1cc(F)ccc1Br)N2)N1CCNCC1` (stereo not shown) [Example 48] was run?
Its pEC50 is 5.68.

How did the pEC50 turn out when `Cc1ccc(F)cc1C1CC2(CC2)c2cc(C(=O)N3CCN(C)CC3)ccc2N1` (stereo not shown) [Example 31, [2-(5-Fluoro-2-methyl-phenyl)-spiro(cyclopropane-1,4′-1′,2′,3′,4′-tetrahydroquinolin)-6-yl]-(4-methyl-piperazin-1-yl)-methanone] was run?
The pEC50 was 5.59.

How did the pEC50 turn out when `O=C(NC1CCC1)c1ccc2c(c1)C1(CCCC1)CC(c1cc(Cl)ccc1F)N2` (stereo not shown) [Example 64, 2-(5-Chloro-2-fluoro-phenyl)-spiro(cyclopentane-1,4′-1′,2′,3′,4′-tetrahydroquinoline)-6-carboxylic acid cyclobutylamide] was run?
Its pEC50 is 5.11.

With `O=C(NC1CCC1)c1ccc2c(c1)C1(CC1)CC(c1cc(Cl)ccc1F)N2` (stereo not shown) [Example 46, 2-(5-Chloro-2-fluoro-phenyl)-spiro(cyclopropane-1,4′-1′,2′,3′,4′-tetrahydroquinoline)-6-carboxylic acid cyclobutylamide] as the compound, how does the pEC50 read?
Its pEC50 is 5.12.

With `CNC(=O)c1ccc2c(c1)C1(CCCC1)CC(c1cc(F)ccc1Br)N2` (stereo not shown) [Example 55, 2-(2-Bromo-5-fluoro-phenyl)-spiro(cyclopentane-1,4′-1′,2′,3′,4′-tetrahydroquinoline)-6-carboxylic acid methylamide] as the compound, how does the pEC50 read?
Its pEC50 is 5.43.

With `CC1(C)CC(c2cc(Cl)ccc2Cl)Nc2ccc(C(=O)NC3CCC3)cc21` (stereo not shown) [Example 66, 2-(2,5-Dichloro-phenyl)-4,4-dimethyl-1,2,3,4-tetrahydro-quinoline-6-carboxylic acid cyclobutylamide] as the compound, how does the pEC50 read?
The pEC50 was 5.26.

`CS(=O)(=O)c1ccc(S(C)(=O)=O)c(C2CC3(CC3)c3cc(C(=O)O)ccc3N2)c1` (stereo not shown) [Example 12, 2-(2,5-Dimethanesulfonyl-phenyl)-spiro(cyclopropane-1,4′-1′,2′,3′,4′-tetrahydroquinoline)-6-carboxylic acid] was tested. Which pEC50 did it give?
The pEC50 was 5.23.
